{
  "source": "patent US20070167412A1",
  "about": "“HALOCOMBSTATINS AND METHODS OF SYNTHESIS THEREOF” (ARIZONA BOARD OF REGENTS, priority 2003, published 2007)",
  "key": {"[1]": {"system": "Staphylococcus aureus", "experiment": "reference broth microdilution susceptibility assay", "format": "cell-based", "details": "Table III", "from_the_text": "(§1) The halocombstatins of the present invention appear to also have antimicrobial properties. More specifically, they appear to have antifungal and/or antibacterial properties. Antimicrobial evaluation of the halocombstatins involved susceptibility testing performed by the reference broth microdilution assay. The antimicrobial activities of the halocombstatins were very similar, targeting Gram-positive bacteria and the pathogenic fungi Cryptococcus neoformans, and results are shown in Table III.\n(§2) (See Pettit, G. R., et al., Antineoplastic Agents 463. Synthesis of Combretastatin A-3 Diphosphates, Anticancer Drug Design 2000, 15, 397-404.) To determine the antimicrobial activity of the present compounds, susceptibility testing was performed by the reference broth microdilution assay. (See National Committee for Clinical Laboratory Standards. Methods for Dilution Antimicrobial Susceptibility Tests for Bacteria that Grow Aerobically. Approved Standard M7-A5. Wayne, P A: NCCLS, 2000. National Committee for Clinical Laboratory Standards. Reference Method for Broth Dilution Antifungal Susceptibility Testing of Yeasts. Aproved Standard M27-A. Wayne, P A: NCCLS, 1997.) The antimicrobial activities of the halocombretastatins of the present invention were very similar, targeting Gram-positive bacteria and Cryptococcus neoformans. This is illustrated in further detail in Table III. Thus, several of the novel compounds of the present invention appear to have potential as antimicrobial agents, such as antifingals and antibacterials."}, "[2]": {"system": "Candida albicans", "experiment": "reference broth microdilution susceptibility assay", "format": "cell-based", "details": "Table III", "from_the_text": "as §1, §2"}, "[3]": {"system": "Neisseria gonorrhoeae", "experiment": "reference broth microdilution susceptibility assay", "format": "cell-based", "details": "Table III", "from_the_text": "as §1, §2"}, "[4]": {"system": "Micrococcus luteus", "experiment": "reference broth microdilution susceptibility assay", "format": "cell-based", "details": "Table III", "from_the_text": "as §1, §2"}, "[5]": {"system": "Stenotrophomonas maltophilia", "experiment": "reference broth microdilution susceptibility assay", "format": "cell-based", "details": "Table III", "from_the_text": "as §1, §2"}, "[6]": {"system": "Cryptococcus neoformans", "experiment": "reference broth microdilution susceptibility assay", "format": "cell-based", "details": "Table III", "from_the_text": "as §1, §2"}, "[7]": {"system": "Enterobacter cloacae", "experiment": "reference broth microdilution susceptibility assay", "format": "cell-based", "details": "Table III", "from_the_text": "as §1, §2"}, "[8]": {"system": "Enterococcus faecalis", "experiment": "reference broth microdilution susceptibility assay", "format": "cell-based", "details": "Table III", "from_the_text": "as §1, §2"}, "[9]": {"system": "Streptococcus pneumoniae", "experiment": "reference broth microdilution susceptibility assay", "format": "cell-based", "details": "Table III", "from_the_text": "as §1, §2"}, "[10]": {"system": "Escherichia coli", "experiment": "reference broth microdilution susceptibility assay", "format": "cell-based", "details": "Table III", "from_the_text": "as §1, §2"}, "[11]": {"system": "tubulin", "experiment": "inhibition of [3H]colchicine binding to tubulin", "details": "1.0 μM tubulin, 5.0 μM [3H]colchicine, inhibitor at 1.0 μM, 10 minutes at 37° C.", "description": "(§3) Tubulin polymerization was evaluated by turbidimetry at 350 nm using Beckman DU7400/7500 spectrophotometers as described in detail elsewhere. […] Varying concentrations of drug were preincubated with 10 μM:M ([…]) purified tubulin (See Hamel, E., et al., Separation of Active Tubulin and Microtubule-associated Proteins by Ultracentrifiigation and Isolation of a Component Causing the Formation of Microtubule Bundles, Biochemistry 1984, 23, 4173-4184). Samples were chilled on ice, GTP (0.4 mM) was added, and polymerization was followed at 30° C. The parameter measured was extent of the reaction after 20 minutes. Coichicine binding was measured as described in detail previously. Reaction mixtures contained 1.0 μM :M tubulin, 5.0:M, [^3H]colchicine (from Dupont), and inhibitor at 1.0 μM:M. Incubation was for 10 minutes at 37° C."}, "[12]": {"system": "T1, purified tubulin", "T1 construct": "other: 10 μM tubulin, GTP 0.4 mM, 30° C., extent after 20 minutes", "experiment": "inhibition of tubulin polymerization (turbidimetry)", "format": "biochemical", "description": "as §3\nTubulin Evaluations: Tubulin polymerization was evaluated by turbidimetry at […] using Beckman DU7400/7500 spectrophotometers as known to one of skill in the art. Varying concentrations of the compound were preincubated with 10 μM. […]"}, "[13]": {"system": "Prostate DU-145", "experiment": "human cancer cell growth inhibition, sulforhodamine B assay", "format": "cell-based", "details": "Table I, 48 hours", "description": "(§4) Inhibition of human cancer cell growth was assessed using the National Cancer Institute's standard sulforhodamine B assay. After 48 hours, the plates were fixed with trichloracetic acid, stained with sulforhodamine B and read with an automated microplate reader. […] Inhibition of the mouse leukemia P388 cells was assessed in a 10% horse serum/Fisher medium soution for 24 hours, followed by a 48 hour incubation with serial dilutions of the compounds. Cell growth inhibition (ED50) was then calculated using a Z1 Becleman/Coulter particle counter."}, "[14]": {"system": "Pancreas BXPC-3", "experiment": "human cancer cell growth inhibition, sulforhodamine B assay", "format": "cell-based", "details": "Table I, 48 hours", "description": "as §4"}, "[15]": {"system": "CNS SF268", "experiment": "human cancer cell growth inhibition, sulforhodamine B assay", "format": "cell-based", "details": "Table I, 48 hours", "description": "as §4"}, "[16]": {"system": "Lung-NSC NCI-H460", "experiment": "human cancer cell growth inhibition, sulforhodamine B assay", "format": "cell-based", "details": "Table I, 48 hours", "description": "as §4"}, "[17]": {"system": "Colon KM20L2", "experiment": "human cancer cell growth inhibition, sulforhodamine B assay", "format": "cell-based", "details": "Table I, 48 hours", "description": "as §4"}, "[18]": {"system": "Breast MCF-7", "experiment": "human cancer cell growth inhibition, sulforhodamine B assay", "format": "cell-based", "details": "Homo sapiens, MCF7; Table I; 48 hours; read-out: Human cancer cell line inhibition (GI50) Breast adn MCF-7", "description": "as §4"}},
  "note": "Where two headings read alike, the source gives them in different places.",
  "data": [
    {"compound": "COc1ccc(/C=C\\c2cc(Br)c(OC)c(OC)c2)cc1O", "note": "[Compound 13a, 3-Bromo-4,4′,5-trimethoxy-3′-hydroxy-Z-stilbene]", "values": [
      {"measurement": "Range of minimum inhibitory concentration, Staphylococcus aureus", "setting": "[1]", "value": "* (no inhibition at 64 μg/ml)"},
      {"measurement": "Range of minimum inhibitory concentration, Candida albicans", "setting": "[2]", "value": "* (no inhibition at 64 μg/ml)"},
      {"measurement": "Range of minimum inhibitory concentration, Neisseria gonorrhoeae", "setting": "[3]", "value": "32 to 64", "unit": "µg/mL"},
      {"measurement": "Range of minimum inhibitory concentration, Micrococcus luteus", "setting": "[4]", "value": "32 to 64", "unit": "µg/mL"},
      {"measurement": "Range of minimum inhibitory concentration, Stenotrophomonas maltophilia", "setting": "[5]", "value": "* (no inhibition at 64 μg/ml)"},
      {"measurement": "Range of minimum inhibitory concentration, Cryptococcus neoformans", "setting": "[6]", "value": "* (no inhibition at 64 μg/ml)"},
      {"measurement": "Range of minimum inhibitory concentration, Enterobacter cloacae", "setting": "[7]", "value": "* (no inhibition at 64 μg/ml)"},
      {"measurement": "Range of minimum inhibitory concentration, Enterococcus faecalis", "setting": "[8]", "value": "* (no inhibition at 64 μg/ml)"},
      {"measurement": "Range of minimum inhibitory concentration, Streptococcus pneumoniae", "setting": "[9]", "value": "* (no inhibition at 64 μg/ml)"},
      {"measurement": "Range of minimum inhibitory concentration, Escherichia coli", "setting": "[10]", "value": "* (no inhibition at 64 μg/ml)"},
      {"measurement": "Inhibition of colchicine binding % inhibition ± S.D.", "setting": "[11]", "value": "89 ± 2", "unit": "%"},
      {"measurement": "IC50", "setting": "[12]; 10 μM tubulin, GTP 0.4 mM, 30° C., extent after 20 minutes, read-out: Inhibition of polymerization IC50 ± S.D.", "value": "1.5 ± 0.2", "unit": "µM"},
      {"measurement": "melting point", "value": "108 to 109", "unit": "°C"},
      {"measurement": "GI50", "setting": "[13]; Homo sapiens, DU-145, read-out: Human cancer cell line inhibition (GI50) Prostate DU-145", "value": "< 0.001", "unit": "µg/mL"},
      {"measurement": "GI50", "setting": "[14]; Homo sapiens, BXPC-3, read-out: Human cancer cell line inhibition (GI50) Pancreas-a BXPC-3", "value": 0.16, "unit": "µg/mL"},
      {"measurement": "GI50", "setting": "[15]; Homo sapiens, SF-268, read-out: Human cancer cell line inhibition (GI50) CNS SF268", "value": "< 0.001", "unit": "µg/mL"},
      {"measurement": "GI50", "setting": "[16]; Homo sapiens, NCI-H460, read-out: Human cancer cell line inhibition (GI50) Lung-NSC NCI-H460", "value": "< 0.001", "unit": "µg/mL"},
      {"measurement": "GI50", "setting": "[17]; Homo sapiens, KM-20L2, read-out: Human cancer cell line inhibition (GI50) Colon KM20L2", "value": 0.086, "unit": "µg/mL"},
      {"measurement": "GI50", "setting": "[18]", "value": "< 0.001", "unit": "µg/mL"}
    ]},
    {"compound": "combretastatin A-4 [Compound 1a, reference compound]", "values": [
      {"measurement": "Inhibition of colchicine binding % inhibition ± S.D.", "setting": "[11]", "value": "81 ± 3", "unit": "%"},
      {"measurement": "IC50", "setting": "[12]; text b32, read-out: IC50, inhibition of the polymerization reaction", "value": 1.8, "unit": "µM"},
      {"measurement": "Human cancer cell line inhibition (GI50) Prostate DU-145", "setting": "[13]", "value": 0.0008, "unit": "µg/mL"},
      {"measurement": "Human cancer cell line inhibition (GI50) Pancreas-a BXPC-3", "setting": "[14]", "value": 0.39, "unit": "µg/mL"},
      {"measurement": "Human cancer cell line inhibition (GI50) CNS SF268", "setting": "[15]", "value": "<0.001", "unit": "µg/mL"},
      {"measurement": "Human cancer cell line inhibition (GI50) Lung-NSC NCI-H460", "setting": "[16]", "value": 0.0006, "unit": "µg/mL"},
      {"measurement": "Human cancer cell line inhibition (GI50) Colon KM20L2", "setting": "[17]", "value": 0.061, "unit": "µg/mL"}
    ]}
  ]
}
